Data published in patent publication US11957759B1, “Rapidly accelerated fibrosarcoma (RAF) degrading compounds and associated methods of use” (Arvinas Operations, Inc., priority 2022, dated 2024).

Experiments:
B-RAF G466V = biological target: T1, B-RAF G466V (Homo sapiens, UniProt P15056, G466V); experiment: Target protein degradation, assay D: T-Rex 293 cells, HA-BRAF_G466V, 384 well format; format: cell-based; details: T-Rex 293 HA-BRAF_G466V cells, 24 hours, Examples 83-269; for DC50: Assay D; for Dmax: T-REx-293, Assay D
T1 construct: expressed in transfected cells; host or cells: T-Rex 293 cells (Invitrogen #R71007)
T1 sequence (P15056 whole entry G466V): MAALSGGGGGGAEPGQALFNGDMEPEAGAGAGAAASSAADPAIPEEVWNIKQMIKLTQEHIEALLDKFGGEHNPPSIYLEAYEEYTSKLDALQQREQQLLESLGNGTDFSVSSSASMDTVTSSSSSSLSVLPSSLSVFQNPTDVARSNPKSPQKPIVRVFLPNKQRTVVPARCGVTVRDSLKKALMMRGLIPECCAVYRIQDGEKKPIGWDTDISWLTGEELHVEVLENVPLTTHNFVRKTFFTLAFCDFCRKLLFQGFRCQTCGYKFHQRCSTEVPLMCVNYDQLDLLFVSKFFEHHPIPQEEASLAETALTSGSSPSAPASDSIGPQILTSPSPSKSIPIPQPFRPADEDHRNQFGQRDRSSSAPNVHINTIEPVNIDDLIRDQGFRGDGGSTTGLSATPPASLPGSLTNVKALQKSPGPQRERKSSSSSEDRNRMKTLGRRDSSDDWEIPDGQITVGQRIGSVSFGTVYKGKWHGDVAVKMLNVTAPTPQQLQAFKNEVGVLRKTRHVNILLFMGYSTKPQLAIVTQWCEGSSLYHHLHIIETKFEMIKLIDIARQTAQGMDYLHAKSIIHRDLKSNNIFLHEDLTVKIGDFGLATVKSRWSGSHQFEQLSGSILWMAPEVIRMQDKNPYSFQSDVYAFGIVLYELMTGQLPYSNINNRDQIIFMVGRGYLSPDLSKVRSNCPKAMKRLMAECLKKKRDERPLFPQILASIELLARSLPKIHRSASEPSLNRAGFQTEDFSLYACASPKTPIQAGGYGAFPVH
In short: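 Degradation measured by high-content imaging of anti-HA immunofluorescence in fixed T-Rex 293 cells carrying inducible HA-BRAF G466V (1 ng/mL doxycycline), after 24 h PROTAC exposure at 37 °C over 300 nM–5 pM (1:3, 11 points, 0.5% DMSO). Outputs DC50 and Dmax as % of control; nuclei counts against DMSO wells gauge toxicity.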

B-RAF V600E = biological target: T2, B-RAF V600E (Homo sapiens, UniProt P15056, V600E); experiment: Target protein degradation, assay C: T-Rex 293 cells, HA-BRAF_V600E, 384 well format; format: cell-based; details: T-Rex 293 HA-BRAF_V600E cells, 24 hours, Examples 83-269; for DC50: Assay C; for Dmax: T-REx-293, Assay C
T2 construct: expressed in transfected cells; host or cells: T-Rex 293 cells (Invitrogen #R71007)
T2 sequence (P15056 whole entry V600E): as the sequence (P15056 whole entry G466V) above, with V466G, V600E counted along it
In short: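 After 24 h exposure to an 11-point 1:3 series (300 nM–5 pM, 0.5% DMSO), fixed T-Rex 293 cells carrying HA-BRAF V600E (induced with 1 ng/mL doxycycline) were stained anti-HA and imaged. DC50 and Dmax were derived from BRAF intensity relative to control, and cytotoxicity from nuclear counts.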

| DC50 (B-RAF G466V) | Dmax (B-RAF G466V) | DC50 (B-RAF V600E) | Dmax (B-RAF V600E) | Structure (SMILES) |
| --- | --- | --- | --- | --- |
| ≤ 1 nM | ≤ 35% | 50 to 500 nM | 35 to 70% | N#Cc1c(NS(=O)(=O)N2CC[C@@H](F)C2)ccc(F)c1Oc1ccc2ncn(-c3ccc(N4CCN(CC5CCN(c6ccc7c(c6)CN(C6CCC(=O)NC6=O)C7=O)CC5)CC4)cn3)c(=O)c2c1 (stereo partly drawn) [Example 83, (3R)-N-{2-cyano-3-[(3-{5-[4-({1-[2-(2,6-dioxopiperidin-3-yl)-1-oxo-2,3-dihydro-1H-isoindol-5-yl]piperidin-4-yl}methyl)piperazin-1-yl]pyridin-2-yl}-4-oxo-3,4-dihydroquinazolin-6-yl)oxy]-4-fluorophenyl}-3-fluoropyrrolidine-1-sulfonamide] |
| 1 to 10 nM | 35 to 70% | 50 to 500 nM | 35 to 70% | N#Cc1c(NS(=O)(=O)N2CC[C@@H](F)C2)ccc(F)c1Oc1ccc2ncn(-c3ccc(N4CCC5(CC4)CN(CC4CCN(c6ccc7c(c6)CN([C@H]6CCC(=O)NC6=O)C7=O)CC4)C5)cc3)c(=O)c2c1 [Example 202, (3R)-N-(2-cyano-3-{[3-(4-{2-[(1-{2-[(3S)-2,6-dioxopiperidin-3-yl]-1-oxo-2,3-dihydro-1H-isoindol-5-yl}piperidin-4-yl)methyl]-2,7-diazaspiro[3.5]nonan-7-yl}phenyl)-4-oxo-3,4-dihydroquinazolin-6-yl]oxy}-4-fluorophenyl)-3-fluoropyrrolidine-1-sulfonamide] |
| > 30 nM | – | 50 to 500 nM | 35 to 70% | N#Cc1c(NS(=O)(=O)N2CC[C@@H](F)C2)ccc(F)c1Oc1ccc2ncn(-c3cnc(N4CCC(CC5CCCN5c5ccc6c(c5)C(=O)N(C5CCC(=O)NC5=O)C6=O)CC4)nc3)c(=O)c2c1 (stereo partly drawn) [Example 156, (3R)-N-{2-cyano-3-[(3-{2-[4-({1-[2-(2,6-dioxopiperidin-3-yl)-1,3-dioxo-2,3-dihydro-1H-isoindol-5-yl]pyrrolidin-2-yl}methyl)piperidin-1-yl]pyrimidin-5-yl}-4-oxo-3,4-dihydroquinazolin-6-yl)oxy]-4-fluorophenyl}-3-fluoropyrrolidine-1-sulfonamide] |
| 1 to 10 nM | 35 to 70% | 50 to 500 nM | 35 to 70% | N#Cc1c(NS(=O)(=O)N2CC[C@@H](F)C2)ccc(F)c1Oc1ccc2ncn(-c3cnc(N4CCC(CN5CCC6(CC5)CCN(c5ccc7c(c5)C(=O)N(C5CCC(=O)NC5=O)C7=O)CC6)CC4)nc3)c(=O)c2c1 (stereo partly drawn) [Example 129, (3R)-N-{2-cyano-3-[(3-{2-[4-({9-[2-(2,6-dioxopiperidin-3-yl)-1,3-dioxo-2,3-dihydro-1H-isoindol-5-yl]-3,9-diazaspiro[5.5]undecan-3-yl}methyl)piperidin-1-yl]pyrimidin-5-yl}-4-oxo-3,4-dihydroquinazolin-6-yl)oxy]-4-fluorophenyl}-3-fluoropyrrolidine-1-sulfonamide] |
| 1 to 10 nM | ≤ 35% | 50 to 500 nM | 35 to 70% | N#Cc1c(NS(=O)(=O)N2CC[C@@H](F)C2)ccc(F)c1Oc1ccc2ncn(-c3ccc(N4CC(CC5CN(c6ccc7c(c6)C(=O)N(C6CCC(=O)NC6=O)C7=O)C5)C4)nc3)c(=O)c2c1 (stereo partly drawn) [Example 159, (3R)-N-{2-cyano-3-[(3-{6-[3-({1-[2-(2,6-dioxopiperidin-3-yl)-1,3-dioxo-2,3-dihydro-1H-isoindol-5-yl]azetidin-3-yl}methyl)azetidin-1-yl]pyridin-3-yl}-4-oxo-3,4-dihydroquinazolin-6-yl)oxy]-4-fluorophenyl}-3-fluoropyrrolidine-1-sulfonamide] |
| 10 to 30 nM | ≤ 35% | 50 to 500 nM | 35 to 70% | N#Cc1c(NS(=O)(=O)N2CC[C@@H](F)C2)ccc(F)c1Oc1ccc2ncn(-c3ccc(N4CCC(CN5CCN(CC6CCN(c7ccc8c(c7)CN([C@@H]7CCC(=O)NC7=O)C8=O)CC6)CC5)CC4)cc3)c(=O)c2c1 [Example 186, (3R)-N-{2-cyano-3-[(3-{4-[4-({4-[(1-{2-[(3R)-2,6-dioxopiperidin-3-yl]-1-oxo-2,3-dihydro-1H-isoindol-5-yl}piperidin-4-yl)methyl]piperazin-1-yl}methyl)piperidin-1-yl]phenyl}-4-oxo-3,4-dihydroquinazolin-6-yl)oxy]-4-fluorophenyl}-3-fluoropyrrolidine-1-sulfonamide] |
| 1 to 10 nM | ≤ 35% | 5 to 50 nM | 35 to 70% | N#Cc1c(NS(=O)(=O)N2CC[C@@H](F)C2)ccc(F)c1Oc1ccc2ncn(-c3cnc(C4(N5CCN(CC6CN(c7ccc(NC8CCC(=O)NC8=O)cc7F)C6)CC5)CC4)nc3)c(=O)c2c1 (stereo partly drawn) [Example 108, (3R)-N-[2-cyano-3-({3-[2-(1-{4-[(1-{4-[(2,6-dioxopiperidin-3-yl)amino]-2-fluorophenyl}azetidin-3-yl)methyl]piperazin-1-yl}cyclopropyl)pyrimidin-5-yl]-4-oxo-3,4-dihydroquinazolin-6-yl}oxy)-4-fluorophenyl]-3-fluoropyrrolidine-1-sulfonamide] |
| 1 to 10 nM | ≤ 35% | 50 to 500 nM | 35 to 70% | N#Cc1c(NS(=O)(=O)N2CC[C@@H](F)C2)ccc(F)c1Oc1ccc2ncn(-c3ccc(N4CCC(CCCN5CCN(c6ccc7c(c6)C(=O)N(C6CCC(=O)NC6=O)C7=O)CC5)CC4)nc3)c(=O)c2c1 (stereo partly drawn) [Example 167, (3R)-N-{2-cyano-3-[(3-{6-[4-(3-{4-[2-(2,6-dioxopiperidin-3-yl)-1,3-dioxo-2,3-dihydro-1H-isoindol-5-yl]piperazin-1-yl}propyl)piperidin-1-yl]pyridin-3-yl}-4-oxo-3,4-dihydroquinazolin-6-yl)oxy]-4-fluorophenyl}-3-fluoropyrrolidine-1-sulfonamide] |
| 1 to 10 nM | 35 to 70% | 5 to 50 nM | 35 to 70% | N#Cc1c(NS(=O)(=O)N2CC[C@@H](F)C2)ccc(F)c1Oc1ccc2ncn(-c3cnc(N4CCN(CCN5CCN(c6ccc7c(c6)CN(C6CCC(=O)NC6=O)C7=O)CC5)CC4)nc3)c(=O)c2c1 (stereo partly drawn) [Example 151, (3R)-N-{2-cyano-3-[(3-{2-[4-(2-{4-[2-(2,6-dioxopiperidin-3-yl)-1-oxo-2,3-dihydro-1H-isoindol-5-yl]piperazin-1-yl}ethyl)piperazin-1-yl]pyrimidin-5-yl}-4-oxo-3,4-dihydroquinazolin-6-yl)oxy]-4-fluorophenyl}-3-fluoropyrrolidine-1-sulfonamide] |
| 1 to 10 nM | 35 to 70% | 50 to 500 nM | 35 to 70% | CN(c1ccc2c(c1)CN([C@@H]1CCC(=O)NC1=O)C2=O)[C@H]1CC[C@H](N2CCN(c3ccc(-n4cnc5ccc(Oc6c(F)ccc(NS(=O)(=O)N7CC[C@@H](F)C7)c6C#N)cc5c4=O)cc3)CC2)CC1 [Example 229, (3R)-N-(2-cyano-4-fluoro-3-{[4-oxo-3-(4-{4-[(1r,4r)-4-({2-[(3R)-2,6-dioxopiperidin-3-yl]-1-oxo-2,3-dihydro-1H-isoindol-5-yl}(methyl)amino)cyclohexyl]piperazin-1-yl}phenyl)-3,4-dihydroquinazolin-6-yl]oxy}phenyl)-3-fluoropyrrolidine-1-sulfonamide] |
| 1 to 10 nM | 35 to 70% | 50 to 500 nM | 35 to 70% | CCN(C)S(=O)(=O)Nc1ccc(F)c(Oc2ccc3ncn(-c4ccc(N5CCN(CC6CCN(c7ccc8c(c7)CN(C7CCC(=O)NC7=O)C8=O)CC6)CC5)cc4)c(=O)c3c2)c1C#N (centres unmarked) [Example 109, 2-[(3-{4-[4-({1-[2-(2,6-dioxopiperidin-3-yl)-1-oxo-2,3-dihydro-1H-isoindol-5-yl]piperidin-4-yl}methyl)piperazin-1-yl]phenyl}-4-oxo-3,4-dihydroquinazolin-6-yl)oxy]-6-{[ethyl(methyl)sulfamoyl]amino}-3-fluorobenzonitrile] |
| > 30 nM | – | 50 to 500 nM | 35 to 70% | N#Cc1c(NS(=O)(=O)N2CC[C@@H](F)C2)ccc(F)c1Oc1ccc2ncn(-c3ccc(N4CCC(CN5CC6(C5)CN(c5cccc7c5C(=O)N(C5CCC(=O)NC5=O)C7=O)C6)CC4)nc3)c(=O)c2c1 (stereo partly drawn) [Example 173, (3R)-N-{2-cyano-3-[(3-{6-[4-({6-[2-(2,6-dioxopiperidin-3-yl)-1,3-dioxo-2,3-dihydro-1H-isoindol-4-yl]-2,6-diazaspiro[3.3]heptan-2-yl}methyl)piperidin-1-yl]pyridin-3-yl}-4-oxo-3,4-dihydroquinazolin-6-yl)oxy]-4-fluorophenyl}-3-fluoropyrrolidine-1-sulfonamide] |
| 1 to 10 nM | ≤ 35% | 5 to 50 nM | 35 to 70% | N#Cc1c(NS(=O)(=O)N2CC[C@@H](F)C2)ccc(F)c1Oc1ccc2ncn(-c3cnc(N4CCN(CC5CCN(c6ccc7c(c6)CN(C6CCC(=O)NC6=O)C7=O)CC5)CC4)cn3)c(=O)c2c1 (stereo partly drawn) [Example 89, (3R)-N-{2-cyano-3-[(3-(5-[4-({1-[2-(2,6-dioxopiperidin-3-yl)-1-oxo-2,3-dihydro-1H-isoindol-5-yl]piperidin-4-yl}methyl)piperazin-1-yl]pyrazin-2-yl}-4-oxo-3,4-dihydroquinazolin-6-yl)oxy]-4-fluorophenyl}-3-fluoropyrrolidine-1-sulfonamide] |
